From US6949648B2, “Condensed pyrazole derivatives, process for producing the same and use thereof” (Takeda Pharmaceutical Company Limited, priority 2000, dated 2005)

| SMILES | melting point [°C] |
| --- | --- |
| Cc1cccc2[nH]c3c(c(C)nn3-c3ccccn3)c(=O)c12 [Example 2-31, 3,5-Dimethyl-1-(2-pyridinyl)-1,9-dihydro-4H-pyrazolo[3,4-b]quinolin-4-one] | 183 to 186 |
| Cc1cccc2c(=O)c3c(C)nn(-c4ccccn4)c3[nH]c12 [Example 2-38, 3,8-Dimethyl-1-(2-pyridinyl)-1,9-dihydro-4H-pyrazolo[3,4-b]quinolin-4-one] | 241 to 243 |
| COc1ccc2[nH]c3c(c(C)nn3-c3ccccn3)c(=O)c2c1 [Example 2-43, 6-Methoxy-3-methyl-1-(2-pyridinyl)-1,9-dihydro-4H-pyrazolo[3,4-b]quinolin-4-one] | 227 to 229 |
| COc1cc2[nH]c3c(c(C)nn3-c3ccccn3)c(=O)c2cc1OC [Example 2-48, 6,7-Dimethoxy-3-methyl-1-(2-pyridinyl)-1,9-dihydro-4H-pyrazolo[3,4-b]quinolin-4-one] | 238 to 239 |
| Cc1nn(-c2ccccn2)c2[nH]c3ccc([S+](C)[O-])cc3c(=O)c12 (centres unmarked) [Example 2-51, 3-Methyl-6-(methylsulfinyl)-1-(2-pyridinyl)-1,9-dihydro-4H-pyrazolo[3,4-b]quinolin-4-one] | 268 to 269 |
| Cc1nn(-c2ccccn2)c2[nH]c3ccc(S(C)(=O)=O)cc3c(=O)c12 [Example 2-52, 3-Methyl-6-(methylsulfonyl)-1-(2-pyridinyl)-1,9-dihydro-4H-pyrazolo[3,4-b]quinolin-4-one] | > 300 |
| Cc1nn(-c2ccccn2)c2[nH]c3ccc(N(C)C)cc3c(=O)c12 [Example 2-56, 6-Dimethylamino-3-methyl-1-(2-pyridinyl)-1,9-dihydro-4H-pyrazolo[3,4-b]quinolin-4-one] | 171 to 173 |

Next, values leading:

| melting point [°C] | SMILES |
| --- | --- |
| 167 to 169 | Cc1cccc2nc3c(c(C)nn3-c3ccccn3)c(Cl)c12 [Example 2-29, 4-Chloro-3,5-dimethyl-1-(2-pyridinyl)-1H-pyrazolo[3,4-b]quinoline] |
| 158 to 160 | Cc1ccc2nc3c(c(C)nn3-c3ccccn3)c(Cl)c2c1 [Example 2-32, 4-Chloro-3,6-dimethyl-1-(2-pyridinyl)-1H-pyrazolo[3,4-b]quinoline] |
| 170 to 172 | Cc1cccc2c(Cl)c3c(C)nn(-c4ccccn4)c3nc12 [Example 2-35, 4-Chloro-3,8-dimethyl-1-(2-pyridinyl)-1H-pyrazolo[3,4-b]quinoline] |
| 206 | Cc1nn(-c2ccccn2)c2nc3ccc(C(F)(F)F)cc3c(Cl)c12 [Example 2-39, 4-Chloro-3-methyl-1-(2-pyridinyl)-6-(trifluoromethyl)-1H-pyrazolo[3,4-b]quinoline] |
| 186 to 187 | COc1ccc2nc3c(c(C)nn3-c3ccccn3)c(Cl)c2c1 [Example 2-41, 4-Chloro-6-methoxy-3-methyl-1-(2-pyridinyl)-1H-pyrazolo[3,4-b]quinoline] |
| 267 to 268 | COc1ccc2nc3c(c(C)nn3-c3ccccn3)c(N)c2c1 [Example 2-42, 6-Methoxy-3-methyl-1-(2-pyridinyl)-1H-pyrazolo[3,4-b]quinolin-4-ylamine] |
| 182 | CSc1ccc2nc3c(c(C)nn3-c3ccccn3)c(Cl)c2c1 [Example 2-49, 4-Chloro-3-methyl-6-(methylsulfanyl)-1-(2-pyridinyl)-1H-pyrazolo[3,4-b]quinoline] |
| 282 | Cc1nn(-c2ccccn2)c2nc3ccc([N+](=O)[O-])cc3c(Cl)c12 [Example 2-53, 4-Chloro-3-methyl-6-nitro-1-(2-pyridinyl)-1H-pyrazolo[3,4-b]quinoline] |
| > 300 | Cc1nn(-c2ccccn2)c2[nH]c3ccc([N+](=O)[O-])cc3c(=O)c12 [Example 2-54, 3-Methyl-6-nitro-1-(2-pyridinyl)-1,9-dihydro-4H-pyrazolo[3,4-b]quinolin-4-one] |
| 260 to 262 | Cc1nn(-c2ccccn2)c2[nH]c3ccc(N)cc3c(=O)c12 [Example 2-55, 6-Amino-3-methyl-1-(2-pyridinyl)-1,9-dihydro-4H-pyrazolo[3,4-b]quinolin-4-one] |
